The target in the assay is Carbonic anhydrase 9 (Homo sapiens, UniProt Q16790). Briefly: Inhibition of recombinant human carbonic anhydrase 9 preincubated for 15 mins by stopped-flow CO2 hydration assay.
One may read the Ki as the equilibrium dissociation constant of an inhibitor or competing ligand from its target. For the molecule `COc1ccc2c(c1)SCc1cn(-c3ccc(S(N)(=O)=O)cc3)nc1-2`, the Ki came out at 7.4 nM.
Next, `NS(=O)(=O)c1ccc(Nc2ncc3c(n2)-c2ccc(Cl)cc2SC3)cc1`: 8.7 nM; `NS(=O)(=O)c1ccc(-n2cc3c(n2)-c2ccc(Cl)cc2SC3)cc1`: 6.1 nM.
As for `Cc1ccc2c(c1)NCc1cn(-c3ccc(S(N)(=O)=O)cc3)nc1-2`, the Ki turned out to be 7.7 nM.
Next, `CN(CC(=O)O)c1ccc2c(c1)-c1cccnc1SC2`: 67.8 nM; `COc1ccc2c(c1)SCc1cnc(Nc3ccc(S(N)(=O)=O)cc3)nc1-2`: 22.5 nM; `COc1ccc2c(c1)SCc1ccc(N(C)CC(=O)O)cc1-2`: 40.8 nM.
`Cc1ccc2c(n1)SCc1ccc(N(C)CC(=O)O)cc1-2`: the inhibition constant (Ki) stood at 92.7 nM.
Under `NS(=O)(=O)c1ccc(Nc2ncc3c(n2)-c2ccccc2SC3)cc1` stands 7 nM; under `COc1ccc2c(c1)SCc1ccc(NCC(=O)O)cc1-2`, 54.1 nM.
Next, `NS(=O)(=O)c1ccc(-n2cc3c(n2)-c2ccccc2NC3)cc1`: 6.3 nM.
As to `NS(=O)(=O)c1ccc(Nc2ncc3c(n2)-c2cccnc2SC3)cc1`, the inhibitory constant (Ki) was found to be 27.6 nM.

These data come from ChEMBL document CHEMBL3751815, “Sulfonamides incorporating heteropolycyclic scaffolds show potent inhibitory action against carbonic anhydrase isoforms I, II, IX and XII” (Bioorg Med Chem, 2016).
